3 compounds from patent publication US20200031825A1, “HETEROAROMATIC-FUSED IMIDAZOLYL AMIDES, COMPOSITIONS AND USES THEREOF AS STING AGONISTS” (Trillium Therapeutics Inc., priority 2018, published 2020) can be followed below.

SMILES strings stand for the structures.

The subject of data set [1] is human monocyte-derived macrophages (h-MDMs). In words: Cellular Functional Assay II: secreted IFN-β from human monocyte-derived macrophages. The class given is cell-based. To be noted: h-MDM. The protocol:
(§1) Activation of STING in primary cells was determined by measuring levels of secreted IFN-β from human monocyte-derived macrophages (h-MDMs)/dendritic cells (h-DCs) and/or mouse dendritic cells (m-DCs) after treatment with A.
(§2) Human CD14+ cells were first isolated from human peripheral blood mononuclear cells (PBMCs) with Stemcell Easysep Monocyte Isolation™ kit. Human CD14+ cells were kept in conditioned media for 7-12 days to generate h-MDMs and h-DCs before use. After harvesting from C57BL/6 mouse femurs, bone marrow cells were culture in conditioned media for 7 days to generate m-DCs before use.
(§3) The Culture conditions for the various types of cells whereas noted in Table 2:
(§4) 0.5×10^6 cells in 50 ul buffer (50 mM HEPES, pH7.0; 100 mM KCl; 3 mM MgCl2, 0.1 mM DTT; 85 mM Sucrose; 0.2% BSA, 1 mM ATP) in 96-well round bottom plate. Compound (formulated in DMSO) or DMSO (control) were added into each well and the plate incubate at 37° C. for 30 minutes. Cells were washed twice with 100 uL of fresh media and incubated at 37° C. for an additional 6 hours. After 6 hour of incubation, the supernatant was collected and a Cytometry Bead Assay™ (CBA, BioLegend) was used to measure […] levels.

Data set [2] relates to mouse dendritic cells (m-DCs). In words: Cellular Functional Assay II: secreted IFN-β from mouse dendritic cells. Type of data set: cell-based. The following applies: m-DC. The protocol:
as §1, §2, §3, §4

The subject of data set [3] is human dendritic cells (h-DCs). In words: Cellular Functional Assay II: secreted IFN-β from human dendritic cells. Type of data set: cell-based. To be noted: h-DC. On the procedure: as §1, §2, §3, §4
The next data set deals with T1, mSTING-wt (Mus musculus, UniProt Q3TBT3).
T1 sequence (Q3TBT3 1-378): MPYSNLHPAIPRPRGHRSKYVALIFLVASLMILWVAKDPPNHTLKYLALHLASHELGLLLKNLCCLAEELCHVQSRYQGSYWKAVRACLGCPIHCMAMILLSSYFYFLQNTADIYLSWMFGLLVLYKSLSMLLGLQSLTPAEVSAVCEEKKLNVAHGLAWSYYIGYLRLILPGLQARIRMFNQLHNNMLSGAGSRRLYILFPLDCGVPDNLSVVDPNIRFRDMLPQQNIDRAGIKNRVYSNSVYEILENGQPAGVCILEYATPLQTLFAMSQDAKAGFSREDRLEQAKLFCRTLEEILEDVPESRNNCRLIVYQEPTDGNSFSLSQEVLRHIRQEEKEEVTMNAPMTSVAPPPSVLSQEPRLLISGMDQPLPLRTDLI
The experiment in a line: Cellular Functional Assay I: ISRE-SEAP reporter in HEK-293T-Dual Null cells transfected with mouse STING. The class given is cell-based. The following applies: SEAP reporter; for EC50: HEK-293T-Dual Null, mSTING-wt, read-out: EC50 mSTING-wt.

The target in the next data set is T2, hSTING-AQ (Homo sapiens, UniProt Q86WV6, G230A/R293Q).
T2 construct: expressed in transfected cells
The experiment in a line: Cellular Functional Assay I: ISRE-SEAP reporter, hSTING-AQ allele. The class given is cell-based.

Another data set concerns the target hSTING-HAQ (Homo sapiens, UniProt Q86WV6, G230A/H232R/R293Q/R71H). In words: Cellular Functional Assay I: ISRE-SEAP reporter in HEK-293T-Dual Null cells transfected with hSTING-HAQ. Type of data set: cell-based. The following applies: for EC50: HEK-293T-Dual Null, hSTING-HAQ.
The target of a further data set is hSTING-H232 (Homo sapiens, UniProt Q86WV6). In words: Cellular Functional Assay I: ISRE-SEAP reporter in HEK-293T-Dual Null cells transfected with hSTING-H232. Type of data set: cell-based. To be noted: for EC50: HEK-293T-Dual Null, hSTING-H232.
A further data set addresses hSTING-wt (Homo sapiens, UniProt Q86WV6). The experiment in a line: Cellular Functional Assay I: ISRE-SEAP reporter in HEK-293T-Dual Null cells transfected with hSTING-wt. The class given is cell-based. The following applies: for EC50: HEK-293T-Dual Null, hSTING-wt.
Another data set has as its target T3, hSTING-Q (Homo sapiens, UniProt Q86WV6, R293Q).
T3 construct: expressed in transfected cells
The experiment in a line: Cellular Functional Assay I: ISRE-SEAP reporter, hSTING-Q allele. The class given is cell-based.

Data set [4] deals with murine A20 model of B cell lymphoma. The experiment in a line: In vivo syngeneic A20 mouse tumor model. To be noted: Balb/c mice. The protocol:
The in vivo efficacy of exemplary compound I(c) was evaluated in a murine A20 model of B cell lymphoma. A20 cells were maintained in RPMI1640/10% FBS. Approximately 4×10^6 A20 cells were injected subcutaneously in 0.1 mL PBS into the right flanks of immunocompetent female Balb/c mice. Tumors were permitted to grow for six days after initial inoculation before the animals were segregated into treatment group. Study groups were treated with 25 μg of B formulated in an appropriate vehicle. Exemplary compound B was dosed intratumorally at the proximal tumor (right flank) on days 6, 8, and 11 of the study. Only animals in good health were used for dosing. Since the effects of the test article on the animals were not known, animals were closely observed for 1 h following dosing and at each tumor measurement time point over the course of the study. Any adverse reactions to the administration of the test material were noted and tabulated. […] Systemic toxicity of the treatments was evaluated by body weight change. Tumor volume was measured every 2 days using standard caliper measurement techniques.

[5] abbreviates: A20 tumor, 25 μg intratumorally on days 6, 8 and 11.

hSTING-wt, sequence (Q86WV6 whole entry H232R): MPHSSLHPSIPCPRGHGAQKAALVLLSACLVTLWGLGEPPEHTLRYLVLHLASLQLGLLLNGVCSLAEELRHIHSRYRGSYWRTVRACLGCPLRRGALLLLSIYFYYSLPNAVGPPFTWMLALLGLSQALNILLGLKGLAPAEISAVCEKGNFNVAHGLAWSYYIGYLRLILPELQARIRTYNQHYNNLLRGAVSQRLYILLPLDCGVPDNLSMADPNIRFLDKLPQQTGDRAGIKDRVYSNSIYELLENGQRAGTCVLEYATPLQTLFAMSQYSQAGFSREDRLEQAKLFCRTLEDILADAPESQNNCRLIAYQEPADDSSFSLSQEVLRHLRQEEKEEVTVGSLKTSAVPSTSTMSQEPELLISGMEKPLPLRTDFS
hSTING-H232, sequence (Q86WV6 whole entry): as the sequence (Q86WV6 whole entry H232R) above, with R232H counted along it
hSTING-HAQ, sequence (Q86WV6 whole entry R71H/G230A/H232R/R293Q): as the sequence (Q86WV6 whole entry H232R) above, with R71H, G230A, R293Q counted along it
T3 sequence (Q86WV6 whole entry R293Q): as the sequence (Q86WV6 whole entry H232R) above, with R232H, R293Q counted along it
T2 sequence (Q86WV6 whole entry G230A/H232R/R293Q): as the sequence (Q86WV6 whole entry H232R) above, with G230A, R293Q counted along it

For `Nc1nc2c(ncn2[C@@H]2O[C@@H]3COP(=O)(O)O[C@H]4[C@@H](O)[C@H](n5cnc6c(N)ncnc65)O[C@@H]4COP(=O)(O)O[C@@H]2[C@@H]3O)c(=O)[nH]1` [2′3-cGAMP, reference compound], the IFN-β level in data set [1] (0.1 uM) is <10 pg/mL; in [1] (1 uM), <20 pg/mL; in data set [1] (10 uM), <50 pg/mL; in data set [2] (0.1 uM), <300 pg/mL; in [2] (1 uM), <1,000 pg/ml; in data set [2] (10 uM), <3,000 pg/ml. The IFN-β level was <10 pg/mL in data set [3] (0.1 uM) and <50 pg/mL in [3] (10 uM).
As to `CCn1nc(C)cc1C(=O)Nc1nc2cc(C(N)=O)cnc2n1C/C=C/Cn1c(NC(=O)c2cc(C)nn2CC)nc2cc(C(N)=O)cc(OC)c21` [Compound A, 3-[(E)-4-[5-carbamoyl-2-[(2-ethyl-5-methyl-pyrazole-3-carbonyl)amino]-7-methoxy-benzimidazol-1-yl]but-2-enyl]-2-[(2-ethyl-5-methyl-pyrazole-3-carbonyl)amino]imidazo[4,5-b]pyridine-6-carboxamide], the EC50 at mSTING-wt is < 1 nM; at hSTING-AQ, 1 to 500 nM; on hSTING-HAQ it was 1 to 500 nM; at hSTING-H232, < 1 nM; at hSTING-wt, < 1 nM; on hSTING-Q, 1 to 500 nM. The IFN-β level is >1,000 pg/ml in data set [1] (0.1 uM); >1,000 pg/ml in [1] (1 uM); >1,000 pg/ml in data set [1] (10 uM); >100 pg/mL in [2] (0.1 uM); >10,000 pg/ml in data set [2] (1 uM); >50,000 pg/ml in data set [2] (10 uM). Further, the results for the IFN-β level in data set [3] (0.1 uM) and in data set [3] (10 uM) were >5,000 pg/ml and >15,000 pg/ml, respectively.
`CCn1nc(C)cc1C(=O)Nc1nc2cc(C(N)=O)cnc2n1C/C=C/Cn1c(NC(=O)c2cc(C)nn2CC)nc2cc(C(N)=O)cc(C)c21.Cl.Cl.Cl.Cl` [Compound B, 3-[(E)-4-[5-carbamoyl-2-[(2-ethyl-5-methyl-pyrazole-3-carbonyl)amino]-7-methyl-benzimidazol-1-yl]but-2-enyl]-2-[(2-ethyl-5-methyl-pyrazole-3-carbonyl)amino]imidazo[4,5-b]pyridine-6-carboxamide Tetrahydrochloride]: the “EC50 level, mouse STING” value at mSTING-wt was “pM or nM level”. Moreover, the EC50 was 1 to 500 nM on mSTING-wt; 1 to 500 nM on hSTING-AQ; 1 to 500 nM at hSTING-HAQ; < 1 nM on hSTING-H232; < 1 nM on hSTING-wt; 1 to 500 nM at hSTING-Q. Also, in data set [4] (25 μg dose group), the “dose related toxicity as measured by body weight loss” value is given as “no dose related toxicity”. Further, the “animals with complete tumor regression” value in [4] (setting [5]) stood at 80%. The “tumoricidal effect at the injected tumor” value in [4] (setting [5]) was “significant tumoricidal properties”. Also, at hSTING-HAQ, the “EC50 level, human STING HAQ” value is “pM or nM level”. Also, on hSTING-H232, the “EC50 level, human STING REF (also called H232)” value is listed as “pM or nM level”. The IFN-β level in data set [2] (10 uM) is >60,000 pg/ml; in [3] (0.1 uM), >800 pg/mL; in data set [3] (1 uM) it was >1,000 pg/ml; in data set [3] (10 uM) it was >1,000 pg/ml. In addition, the “EC50 level, human STING WT” value on hSTING-wt is on record as “pM or nM level”.

Usually EC50 stands for the concentration needed to bring the measured effect to its halfway point.
